According to the supplement of paper PMC10307832:

Legend:
Test in all cases: relative viability (nuclei count vs DMSO), 5 days (fraction); higher = more cells survive
[1] = tested on: SK-MES-1
Summary of the method: (§1)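 Nuclei were stained with Hoechst during a one-step fixation (final 0.05% Triton X-100, 1% formaldehyde, 1 ug/ml Hoechst) carried out 5 days after dosing, then counted on 4× images. The cells, lung cancer lines in 1536-well plates, had been dosed by pin tool the day after seeding with one drug alone or a fixed anchor-drug dose plus five library-drug doses (not always all listed) in √10 steps. Relative viability is the nuclei count in treated wells divided by that in vehicle wells, and each value is the median of duplicate plates.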

[2] = tested on: NCI-H1734
Summary of the method: as §1

[3] = tested on: A-427
Summary of the method: as §1

[4] = tested on: NCI-H2228
Summary of the method: as §1

[5] = tested on: NCI-H2170
Summary of the method: as §1

[6] = tested on: SW 1573
Summary of the method: as §1

[7] = tested on: NCI-H1993
Summary of the method: as §1

[8] = tested on: NCI-H1792
Summary of the method: as §1

[9] = tested on: RERF-LC-KJ
Summary of the method: as §1

[10] = tested on: HCC-366
Summary of the method: as §1

[11] = tested on: NCI-H1755
Summary of the method: as §1

[12] = tested on: LCLC-103H
Summary of the method: as §1

[13] = tested on: NCI-H2342
Summary of the method: as §1

[14] = tested on: HCC-827
Summary of the method: as §1

[15] = tested on: UMC-11
Summary of the method: as §1

[16] = tested on: NCI-H1975
Summary of the method: as §1

[17] = tested on: NCI-H2347
Summary of the method: as §1

[18] = tested on: LC-2-ad
Summary of the method: as §1

[19] = tested on: NCI-H23
Summary of the method: as §1

[20] = tested on: NCI-H650
Summary of the method: as §1

[21] = tested on: SK-LU-1
Summary of the method: as §1

[22] = tested on: NCI-H1915
Summary of the method: as §1

[23] = tested on: NCI-H1355
Summary of the method: as §1

CN1CCN(CCOc2cc(OC3CCOCC3)c3c(Nc4c(Cl)ccc5c4OCO5)ncnc3c2)CC1 [Saracatinib] + CC(=O)c1c(C)c2cnc(Nc3ccc(N4CCNCC4)cn3)nc2n(C2CCCC2)c1=O [Palbociclib] (partner 0.5 µM)
relative viability ([1]; first compound 0.02 µM): 0.3
relative viability ([1]; first compound 0.2 µM): 0.31
relative viability ([1]; first compound 0.6325 µM): 0.309
relative viability ([1]; first compound 2 µM): 0.256
relative viability ([2]; first compound 0.02 µM): 0.362
relative viability ([2]; first compound 0.6325 µM): 0.372
relative viability ([2]; first compound 2 µM): 0.329
relative viability ([3]; first compound 0.02 µM): 0.531
relative viability ([3]; first compound 0.2 µM): 0.457
relative viability ([3]; first compound 0.6325 µM): 0.525
relative viability ([3]; first compound 2 µM): 0.506
relative viability ([4]; first compound 0.02 µM): 0.955
relative viability ([4]; first compound 0.2 µM): 0.649
relative viability ([4]; first compound 0.6325 µM): 0.805
relative viability ([4]; first compound 2 µM): 0.557
relative viability ([5]; first compound 0.02 µM): 0.39
relative viability ([5]; first compound 0.2 µM): 0.39
relative viability ([5]; first compound 0.6325 µM): 0.441
relative viability ([5]; first compound 2 µM): 0.354
relative viability ([6]; first compound 0.02 µM): 0.416
relative viability ([6]; first compound 0.2 µM): 0.399
relative viability ([6]; first compound 0.6325 µM): 0.382
relative viability ([6]; first compound 2 µM): 0.28
relative viability ([7]; first compound 0.02 µM): 0.65
relative viability ([7]; first compound 0.2 µM): 0.584
relative viability ([7]; first compound 0.6325 µM): 0.701
relative viability ([7]; first compound 2 µM): 0.523
relative viability ([8]; first compound 0.02 µM): 0.567
relative viability ([8]; first compound 0.2 µM): 0.439
relative viability ([8]; first compound 0.6325 µM): 0.781
relative viability ([8]; first compound 2 µM): 0.55
relative viability ([9]; first compound 0.02 µM): 1.05
relative viability ([9]; first compound 0.2 µM): 1.05
relative viability ([9]; first compound 0.6325 µM): 1.01
relative viability ([9]; first compound 2 µM): 1.06
relative viability ([10]; first compound 0.02 µM): 0.382
relative viability ([10]; first compound 0.2 µM): 0.176
relative viability ([10]; first compound 0.6325 µM): 0.272
relative viability ([10]; first compound 2 µM): 0.164
relative viability ([11]; first compound 0.02 µM): 0.448
relative viability ([11]; first compound 0.2 µM): 0.395
relative viability ([11]; first compound 0.6325 µM): 0.45
relative viability ([11]; first compound 2 µM): 0.435
relative viability ([12]; first compound 0.02 µM): 0.498
relative viability ([12]; first compound 0.2 µM): 0.389
relative viability ([12]; first compound 0.6325 µM): 0.479
relative viability ([12]; first compound 2 µM): 0.461
relative viability ([13]; first compound 0.02 µM): 0.528
relative viability ([13]; first compound 0.2 µM): 0.479
relative viability ([13]; first compound 0.6325 µM): 0.524
relative viability ([13]; first compound 2 µM): 0.545
relative viability ([14]; first compound 0.02 µM): 0.507
relative viability ([14]; first compound 0.2 µM): 0.314
relative viability ([14]; first compound 0.6325 µM): 0.185
relative viability ([14]; first compound 2 µM): 0.167
relative viability ([15]; first compound 0.02 µM): 0.339
relative viability ([15]; first compound 0.2 µM): 0.374
relative viability ([15]; first compound 0.6325 µM): 0.38
relative viability ([15]; first compound 2 µM): 0.309
relative viability ([16]; first compound 0.02 µM): 0.584
relative viability ([16]; first compound 0.2 µM): 0.603
relative viability ([16]; first compound 0.6325 µM): 0.718
relative viability ([16]; first compound 2 µM): 0.441
relative viability ([17]; first compound 0.02 µM): 0.468
relative viability ([17]; first compound 0.2 µM): 0.397
relative viability ([17]; first compound 0.6325 µM): 0.428
relative viability ([17]; first compound 2 µM): 0.432
relative viability ([18]; first compound 0.02 µM): 0.571
relative viability ([18]; first compound 0.2 µM): 0.448
relative viability ([18]; first compound 0.6325 µM): 0.504
relative viability ([18]; first compound 2 µM): 0.434
relative viability ([19]; first compound 0.02 µM): 0.526
relative viability ([19]; first compound 0.6325 µM): 0.573
relative viability ([19]; first compound 2 µM): 0.403
relative viability ([20]; first compound 0.02 µM): 0.336
relative viability ([20]; first compound 0.2 µM): 0.314
relative viability ([20]; first compound 0.6325 µM): 0.33
relative viability ([20]; first compound 2 µM): 0.307
relative viability ([21]; first compound 0.02 µM): 0.517
relative viability ([21]; first compound 0.2 µM): 0.297
relative viability ([21]; first compound 0.6325 µM): 0.328
relative viability ([21]; first compound 2 µM): 0.254
relative viability ([22]; first compound 0.02 µM): 0.488
relative viability ([22]; first compound 0.2 µM): 0.468
relative viability ([22]; first compound 0.6325 µM): 0.537
relative viability ([22]; first compound 2 µM): 0.462
relative viability ([23]; first compound 0.02 µM): 0.401
relative viability ([23]; first compound 0.2 µM): 0.432
relative viability ([23]; first compound 0.6325 µM): 0.416
relative viability ([23]; first compound 2 µM): 0.371
